Calls of active or inactive are those of the source.
What was measured:
Cannabinoid receptor 1 [1] = biological target: T1, Cannabinoid receptor 1 (Homo sapiens, UniProt P21554); experiment: SAR analysis of antagonists of the Cannabinoid Receptor 1 using an Image-Based Assay - Set 4. [Related pubchem assays (depositor defined):AID2013, AID2026]; format: functional
[2] = biological target: T2, G-protein coupled receptor 35 (Homo sapiens, UniProt Q9HC97); experiment: SAR analysis of Antagonists of the GPR35 Receptor using an Image-Based Assay - Set 6. [Related pubchem assays (depositor defined):AID2013, AID2026]; format: functional
T2 sequence (Q9HC97 whole entry): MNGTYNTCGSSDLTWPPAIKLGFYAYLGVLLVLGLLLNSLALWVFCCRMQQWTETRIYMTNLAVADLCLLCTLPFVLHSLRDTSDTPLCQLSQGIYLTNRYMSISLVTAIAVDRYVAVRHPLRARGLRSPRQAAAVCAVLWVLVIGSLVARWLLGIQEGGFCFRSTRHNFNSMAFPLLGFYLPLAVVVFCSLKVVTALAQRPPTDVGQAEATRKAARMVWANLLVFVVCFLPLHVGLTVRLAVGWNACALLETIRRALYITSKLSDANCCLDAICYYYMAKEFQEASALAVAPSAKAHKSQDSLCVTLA

Cannabinoid receptor 2 [3] = biological target: T3, Cannabinoid receptor 2 (Homo sapiens, UniProt P34972); experiment: SAR analysis of agonists of the Cannabinoid Receptor 2 using an Image-Based Assay - Set 3. [Related pubchem assays (depositor defined):AID2013, AID2026]; format: functional
T3 sequence (P34972 whole entry): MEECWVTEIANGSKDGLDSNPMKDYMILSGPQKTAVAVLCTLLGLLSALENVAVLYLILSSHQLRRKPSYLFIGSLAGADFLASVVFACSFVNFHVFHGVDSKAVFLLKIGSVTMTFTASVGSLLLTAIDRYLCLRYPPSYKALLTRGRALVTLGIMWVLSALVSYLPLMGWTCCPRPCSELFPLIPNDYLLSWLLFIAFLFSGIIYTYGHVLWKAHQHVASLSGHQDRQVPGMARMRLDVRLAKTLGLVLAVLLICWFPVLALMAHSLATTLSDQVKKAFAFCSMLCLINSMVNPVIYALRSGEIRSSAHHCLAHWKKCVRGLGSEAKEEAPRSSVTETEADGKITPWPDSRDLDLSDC

[4] = biological target: T2, G-protein coupled receptor 35; experiment: SAR analysis of Agonists of the GPR35 Receptor using an Image-Based Assay - Set 4. [Related pubchem assays (depositor defined):AID2013, AID2026]; format: functional
Cannabinoid receptor 1 [5] = biological target: T1, Cannabinoid receptor 1; experiment: SAR analysis of agonists of the Cannabinoid Receptor 1 using an Image-Based Assay - Set 4. [Related pubchem assays (depositor defined):AID2013, AID2026]; format: functional
[6] = biological target: G-protein coupled receptor 55 (Homo sapiens, UniProt Q9Y2T6); experiment: SAR Analysis of Selective Antagonists of GPR55 using an Image-Based Assay - Set 4. [Related pubchem assays (depositor defined):AID2013, AID2026]; format: functional;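 further: antagonism of response to 5 µM lysophosphatidylinositol agonist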
Sequence of G-protein coupled receptor 55 (Q9Y2T6 whole entry): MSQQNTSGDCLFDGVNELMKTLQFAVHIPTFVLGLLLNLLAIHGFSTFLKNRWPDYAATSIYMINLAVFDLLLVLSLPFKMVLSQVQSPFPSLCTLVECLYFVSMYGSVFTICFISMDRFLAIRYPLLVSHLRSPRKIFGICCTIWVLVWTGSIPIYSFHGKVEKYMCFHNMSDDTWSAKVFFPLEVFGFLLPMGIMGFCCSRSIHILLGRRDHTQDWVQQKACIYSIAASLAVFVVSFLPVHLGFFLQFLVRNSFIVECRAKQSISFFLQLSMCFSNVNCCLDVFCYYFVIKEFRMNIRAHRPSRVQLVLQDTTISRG

Cannabinoid receptor 2 [7] = biological target: T3, Cannabinoid receptor 2; experiment: SAR analysis of antagonists of the Cannabinoid Receptor 2 using an Image-Based Assay - Set 3. [Related pubchem assays (depositor defined):AID2013, AID2026]; format: functional
Hexokinase HKDC1 = biological target: T4, Hexokinase HKDC1 (Homo sapiens, UniProt Q2TB90); experiment: activation of HKDC1 glucose phosphorylation – biochemical, W721R variant, dose response (AID 504730); format: functional
T4 sequence (Q2TB90 whole entry): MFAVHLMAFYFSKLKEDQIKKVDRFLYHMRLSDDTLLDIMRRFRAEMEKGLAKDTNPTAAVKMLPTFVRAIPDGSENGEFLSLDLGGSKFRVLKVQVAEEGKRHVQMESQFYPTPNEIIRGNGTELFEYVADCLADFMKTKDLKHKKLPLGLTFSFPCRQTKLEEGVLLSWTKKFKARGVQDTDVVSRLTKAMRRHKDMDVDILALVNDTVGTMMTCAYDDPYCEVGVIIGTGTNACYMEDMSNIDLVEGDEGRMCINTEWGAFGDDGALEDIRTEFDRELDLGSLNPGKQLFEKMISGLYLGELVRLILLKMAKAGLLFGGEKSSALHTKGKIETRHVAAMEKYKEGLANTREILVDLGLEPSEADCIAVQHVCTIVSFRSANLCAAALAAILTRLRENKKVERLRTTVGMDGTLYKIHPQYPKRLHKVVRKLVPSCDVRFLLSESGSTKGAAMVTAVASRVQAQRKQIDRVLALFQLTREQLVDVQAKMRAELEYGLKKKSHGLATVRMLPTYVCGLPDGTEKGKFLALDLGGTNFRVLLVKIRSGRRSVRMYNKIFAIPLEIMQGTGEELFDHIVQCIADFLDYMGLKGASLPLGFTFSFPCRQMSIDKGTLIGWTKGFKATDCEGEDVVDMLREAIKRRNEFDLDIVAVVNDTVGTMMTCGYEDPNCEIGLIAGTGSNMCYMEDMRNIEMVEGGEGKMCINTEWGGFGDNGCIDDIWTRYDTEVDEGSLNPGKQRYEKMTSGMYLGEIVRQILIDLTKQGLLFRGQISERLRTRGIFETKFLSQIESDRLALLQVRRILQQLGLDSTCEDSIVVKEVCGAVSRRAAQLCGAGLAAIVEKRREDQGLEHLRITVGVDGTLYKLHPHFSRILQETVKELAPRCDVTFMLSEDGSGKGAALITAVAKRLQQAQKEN

Hexokinase-1 = biological target: T5, Hexokinase-1 (Homo sapiens, UniProt P19367); experiment: HK1 enzyme activation by HKDC1 hits – biochemical, selectivity assay for HKDC1 activator project, dose response (AID 504762); format: functional
T5 sequence (P19367 whole entry): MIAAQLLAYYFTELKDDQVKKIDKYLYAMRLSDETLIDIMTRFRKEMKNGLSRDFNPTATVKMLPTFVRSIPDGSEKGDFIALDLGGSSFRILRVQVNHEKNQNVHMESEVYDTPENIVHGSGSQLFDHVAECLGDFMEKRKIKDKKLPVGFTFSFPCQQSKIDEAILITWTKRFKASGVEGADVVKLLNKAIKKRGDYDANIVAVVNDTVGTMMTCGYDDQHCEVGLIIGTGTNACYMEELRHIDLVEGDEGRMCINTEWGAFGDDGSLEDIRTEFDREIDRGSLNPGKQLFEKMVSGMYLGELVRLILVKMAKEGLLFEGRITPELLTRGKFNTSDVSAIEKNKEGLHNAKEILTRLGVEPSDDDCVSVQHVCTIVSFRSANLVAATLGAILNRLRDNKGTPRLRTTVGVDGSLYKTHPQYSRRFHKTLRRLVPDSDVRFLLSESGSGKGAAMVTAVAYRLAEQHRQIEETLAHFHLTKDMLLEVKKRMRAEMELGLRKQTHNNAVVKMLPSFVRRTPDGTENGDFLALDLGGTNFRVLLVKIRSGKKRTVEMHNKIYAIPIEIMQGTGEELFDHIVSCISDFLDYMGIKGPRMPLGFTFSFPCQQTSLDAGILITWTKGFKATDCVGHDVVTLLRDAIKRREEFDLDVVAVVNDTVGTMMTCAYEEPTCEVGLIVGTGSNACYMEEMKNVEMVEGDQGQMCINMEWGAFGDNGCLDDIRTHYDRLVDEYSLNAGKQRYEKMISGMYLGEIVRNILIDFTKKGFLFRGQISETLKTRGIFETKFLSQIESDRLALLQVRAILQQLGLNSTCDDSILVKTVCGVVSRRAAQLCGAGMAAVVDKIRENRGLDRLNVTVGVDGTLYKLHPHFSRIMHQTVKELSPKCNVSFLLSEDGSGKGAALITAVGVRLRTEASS

[8] = biological target: T6, Voltage-gated N-type calcium channel alpha-1B subunit/Amyloid beta A4 precursor protein-binding family A member 1 (Homo sapiens, UniProt Q00975+Q02410); format: protein assay
T6 sequence (Q00975 whole entry): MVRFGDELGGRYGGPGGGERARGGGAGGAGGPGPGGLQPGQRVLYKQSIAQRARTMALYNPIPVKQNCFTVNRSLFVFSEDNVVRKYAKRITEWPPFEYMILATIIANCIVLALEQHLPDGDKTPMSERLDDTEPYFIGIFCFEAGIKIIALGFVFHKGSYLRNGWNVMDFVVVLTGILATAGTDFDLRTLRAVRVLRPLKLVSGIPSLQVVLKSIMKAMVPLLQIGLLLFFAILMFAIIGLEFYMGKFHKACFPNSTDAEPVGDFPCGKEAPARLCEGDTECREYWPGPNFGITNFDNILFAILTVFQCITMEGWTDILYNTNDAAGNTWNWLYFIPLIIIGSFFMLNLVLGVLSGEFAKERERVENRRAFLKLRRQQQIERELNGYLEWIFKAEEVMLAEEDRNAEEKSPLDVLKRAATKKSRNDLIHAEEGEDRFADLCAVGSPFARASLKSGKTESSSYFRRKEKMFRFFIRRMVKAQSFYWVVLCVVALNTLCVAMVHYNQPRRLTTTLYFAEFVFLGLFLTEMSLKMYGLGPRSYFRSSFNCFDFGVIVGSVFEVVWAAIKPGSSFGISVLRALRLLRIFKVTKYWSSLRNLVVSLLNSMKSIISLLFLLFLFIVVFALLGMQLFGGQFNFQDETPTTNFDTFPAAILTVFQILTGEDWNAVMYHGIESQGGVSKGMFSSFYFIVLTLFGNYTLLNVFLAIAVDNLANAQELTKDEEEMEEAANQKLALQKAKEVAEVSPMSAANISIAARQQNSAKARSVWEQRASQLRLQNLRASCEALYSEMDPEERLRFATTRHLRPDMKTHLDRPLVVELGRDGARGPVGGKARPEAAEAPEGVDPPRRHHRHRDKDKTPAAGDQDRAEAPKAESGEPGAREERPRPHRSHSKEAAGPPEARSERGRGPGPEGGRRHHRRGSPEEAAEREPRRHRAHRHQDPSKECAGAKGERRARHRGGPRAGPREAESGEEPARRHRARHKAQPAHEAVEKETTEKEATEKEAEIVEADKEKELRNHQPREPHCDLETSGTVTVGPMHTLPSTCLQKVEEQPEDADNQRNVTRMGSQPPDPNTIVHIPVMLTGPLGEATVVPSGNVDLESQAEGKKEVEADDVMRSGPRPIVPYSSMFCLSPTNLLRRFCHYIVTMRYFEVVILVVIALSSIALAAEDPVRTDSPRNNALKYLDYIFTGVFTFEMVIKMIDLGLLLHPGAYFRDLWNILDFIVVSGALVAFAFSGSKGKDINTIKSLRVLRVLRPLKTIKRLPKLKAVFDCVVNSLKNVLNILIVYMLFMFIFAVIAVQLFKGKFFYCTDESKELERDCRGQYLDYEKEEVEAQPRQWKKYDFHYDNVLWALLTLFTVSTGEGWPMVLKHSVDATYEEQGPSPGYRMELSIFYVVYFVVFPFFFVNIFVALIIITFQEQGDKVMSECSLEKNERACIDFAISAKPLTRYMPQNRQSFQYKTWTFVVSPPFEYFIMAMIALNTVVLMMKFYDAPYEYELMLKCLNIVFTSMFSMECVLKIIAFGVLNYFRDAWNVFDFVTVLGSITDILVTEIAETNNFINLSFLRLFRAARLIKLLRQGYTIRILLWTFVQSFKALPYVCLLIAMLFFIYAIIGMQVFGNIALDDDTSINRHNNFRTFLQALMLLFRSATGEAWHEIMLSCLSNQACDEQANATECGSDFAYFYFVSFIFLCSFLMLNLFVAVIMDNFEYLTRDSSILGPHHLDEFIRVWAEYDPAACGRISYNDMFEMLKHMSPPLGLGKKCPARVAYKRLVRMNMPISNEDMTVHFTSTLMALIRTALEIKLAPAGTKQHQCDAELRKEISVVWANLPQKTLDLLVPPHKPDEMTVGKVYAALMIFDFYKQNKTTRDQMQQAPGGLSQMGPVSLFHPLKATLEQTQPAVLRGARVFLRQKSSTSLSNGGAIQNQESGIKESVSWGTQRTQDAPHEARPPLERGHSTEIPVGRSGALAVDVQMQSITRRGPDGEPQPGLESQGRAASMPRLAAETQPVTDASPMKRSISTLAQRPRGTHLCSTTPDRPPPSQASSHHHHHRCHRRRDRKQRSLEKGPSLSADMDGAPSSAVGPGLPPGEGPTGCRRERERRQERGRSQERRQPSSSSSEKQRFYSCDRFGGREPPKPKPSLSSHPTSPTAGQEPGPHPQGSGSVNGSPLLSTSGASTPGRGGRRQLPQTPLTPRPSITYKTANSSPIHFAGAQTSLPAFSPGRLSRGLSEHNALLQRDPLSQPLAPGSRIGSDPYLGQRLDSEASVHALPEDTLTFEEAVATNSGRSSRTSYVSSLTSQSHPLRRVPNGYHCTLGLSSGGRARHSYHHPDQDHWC
T6 sequence (Q02410 whole entry): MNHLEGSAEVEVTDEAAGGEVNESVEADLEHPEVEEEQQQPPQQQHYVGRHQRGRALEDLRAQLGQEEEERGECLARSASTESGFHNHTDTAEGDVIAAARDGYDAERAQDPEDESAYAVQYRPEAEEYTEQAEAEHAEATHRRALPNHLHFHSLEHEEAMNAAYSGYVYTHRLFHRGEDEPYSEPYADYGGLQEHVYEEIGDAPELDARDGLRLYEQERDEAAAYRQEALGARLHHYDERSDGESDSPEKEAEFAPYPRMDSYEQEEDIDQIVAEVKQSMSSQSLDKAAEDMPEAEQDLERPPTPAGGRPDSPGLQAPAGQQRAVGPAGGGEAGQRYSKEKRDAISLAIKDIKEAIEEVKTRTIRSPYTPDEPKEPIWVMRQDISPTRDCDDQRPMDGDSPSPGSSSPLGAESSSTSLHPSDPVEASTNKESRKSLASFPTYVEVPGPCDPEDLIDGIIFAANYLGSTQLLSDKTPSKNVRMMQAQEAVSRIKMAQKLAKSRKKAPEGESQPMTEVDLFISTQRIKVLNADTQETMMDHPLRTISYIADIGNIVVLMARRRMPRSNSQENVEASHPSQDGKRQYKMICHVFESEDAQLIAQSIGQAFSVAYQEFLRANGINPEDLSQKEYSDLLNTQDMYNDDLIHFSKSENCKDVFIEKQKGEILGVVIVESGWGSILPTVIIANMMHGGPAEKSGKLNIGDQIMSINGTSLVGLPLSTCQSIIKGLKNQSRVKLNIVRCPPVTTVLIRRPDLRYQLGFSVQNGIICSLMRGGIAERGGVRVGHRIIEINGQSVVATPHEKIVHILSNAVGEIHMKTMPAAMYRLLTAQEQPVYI

[9] = biological target: E3 ubiquitin-protein ligase XIAP (Homo sapiens, UniProt P98170); experiment: Counter Screen using XIAP-Bir3 for Chemical Antagonists of Bir1/2 domains of IAP-family anti-apoptotic proteins. [Related pubchem assays (depositor defined):AID1018, AID1449, AID1514, AID1638, AID1749, AID1750, AID488957, AID488963]
[10] = biological target: T6, Voltage-gated N-type calcium channel alpha-1B subunit/Amyloid beta A4 precursor protein-binding family A member 1; format: protein assay; remark: listed apart in the source

T1 sequence (P21554 whole entry): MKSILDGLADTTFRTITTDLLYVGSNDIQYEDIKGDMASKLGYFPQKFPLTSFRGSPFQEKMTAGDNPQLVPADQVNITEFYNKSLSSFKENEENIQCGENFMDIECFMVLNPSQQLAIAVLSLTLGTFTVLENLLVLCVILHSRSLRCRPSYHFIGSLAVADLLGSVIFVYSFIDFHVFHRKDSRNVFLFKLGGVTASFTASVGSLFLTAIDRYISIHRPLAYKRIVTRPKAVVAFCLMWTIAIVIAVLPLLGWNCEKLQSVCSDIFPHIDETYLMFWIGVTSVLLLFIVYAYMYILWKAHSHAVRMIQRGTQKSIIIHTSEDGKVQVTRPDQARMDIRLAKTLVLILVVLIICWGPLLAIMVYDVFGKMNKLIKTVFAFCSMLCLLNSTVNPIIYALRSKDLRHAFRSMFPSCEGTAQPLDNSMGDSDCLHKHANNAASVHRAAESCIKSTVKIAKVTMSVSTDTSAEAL

IC50 (Cannabinoid receptor 1 [1]) | IC50 [2] | EC50 (Cannabinoid receptor 2 [3]) | EC50 [4] | EC50 (Cannabinoid receptor 1 [5]) | IC50 [6] | IC50 (Cannabinoid receptor 2 [7]) | EC50 (Hexokinase HKDC1) | EC50 (Hexokinase-1) | IC50 [8] | IC50 [9] | IC50 [10] | Structure (SMILES)
18.8 µM (inactive) | > 32 µM (inactive) | > 32 µM (inactive) | > 32 µM (inactive) | > 32 µM (inactive) | 4.63 µM (active) | > 32 µM (inactive) | – | – | – | – | – | Cc1noc(NS(=O)(=O)c2ccc(NC(=O)c3cc(-c4ccccc4Cl)nc4ccccc34)cc2)c1C
– | – | – | – | – | – | – | 34.1 µM (inactive) | 21.7 µM (inactive) | – | – | – | Cc1ccc2oc(=O)c3cnn(CC(=O)N4CCCCCC4)c3c2c1
– | – | – | – | – | – | – | – | – | 7.16 µM (active) | > 20 µM (inactive) | > 50 µM (inactive) | O=C(Nc1ccc(S(=O)(=O)N2CCOCC2)cc1)c1ccc(O)nc1
2.22 µM (active) | > 32 µM (inactive) | > 32 µM (inactive) | > 32 µM (inactive) | > 32 µM (inactive) | 13.1 µM (inactive) | > 13.1 µM (inactive) | – | – | – | – | – | Cc1nc(N2CCN(C(=O)COc3ccccc3C)CC2)c2c3c(sc2n1)CCCC3

Source: ChEMBL document CHEMBL1201862, “PubChem BioAssay data set” (2004)
